Results published in patent US7902327B2, “Dendrimeric peptides, pharmaceutical compositions and methods of using the same” (New York University School of Medicine, priority 2007, dated 2011).
In brackets after ≈: the same amount, converted by molar mass. Where a SMILES comes first, the peptide text is derived from it. Side-chain parts run from the residue outwards. [ ]: non-standard residue; d: D form. The star is where a group is joined. Lys(α,ε-(ArgTrp)2) = N=C(N)NCCC[C@H](N)C(=O)N[C@@H](Cc1c[nH]c2ccccc12)C(=O)NCCCC[C@H](NC(=O)[C@H](Cc1c[nH]c2ccccc12)NC(=O)[C@@H](N)CCCNC(=N)N)C(=O)*; NHBn = c1ccc(CN*)cc1; OBn = c1ccc(CO*)cc1; X1 = CCCCCCCCCN*; βAla = NCCC(=O)O

test system: E. faecalis (29212); conditions: 29212

Q: How did the “MIC50 E. faecalis” value turn out when `N=C(N)NCCC[C@H](N)C(=O)N[C@@H](Cc1c[nH]c2ccccc12)C(=O)NCCCC[C@H](NC(=O)[C@H](Cc1c[nH]c2ccccc12)NC(=O)[C@@H](N)CCCNC(=N)N)C(=O)NCCCC[C@H](NC(=O)[C@H](CCCCNC(=O)[C@H](Cc1c[nH]c2ccccc12)NC(=O)[C@@H](N)CCCNC(=N)N)NC(=O)[C@H](Cc1c[nH]c2ccccc12)NC(=O)[C@@H](N)CCCNC(=N)N)C(=O)NCCC(=O)NCc1ccccc1` [(RW)4D-Benzyl amine] (H-RWK([Trp-Arg])K(Lys(α,ε-(ArgTrp)2))[βAla]-NHBn) was run?
A: 5.1 µg/mL (≈ 2.64 µM)

Q: For `N=C(N)NCCC[C@H](N)C(=O)N[C@@H](Cc1c[nH]c2ccccc12)C(=O)NCCCC[C@H](NC(=O)[C@H](Cc1c[nH]c2ccccc12)NC(=O)[C@@H](N)CCCNC(=N)N)C(=O)NCCCC[C@H](NC(=O)[C@H](CCCCNC(=O)[C@H](Cc1c[nH]c2ccccc12)NC(=O)[C@@H](N)CCCNC(=N)N)NC(=O)[C@H](Cc1c[nH]c2ccccc12)NC(=O)[C@@H](N)CCCNC(=N)N)C(=O)NCCC(=O)OCc1ccccc1` [(RW)4D-Benzyl ester] (H-RWK([Trp-Arg])K(Lys(α,ε-(ArgTrp)2))[βAla]-OBn), which “MIC50 E. faecalis” value is on record?
A: 6.7 µg/mL (≈ 3.47 µM)

Q: For `CCCCCCCCCNC(=O)CCNC(=O)[C@H](CCCCNC(=O)[C@H](CCCCNC(=O)[C@H](Cc1c[nH]c2ccccc12)NC(=O)[C@@H](N)CCCNC(=N)N)NC(=O)[C@H](Cc1c[nH]c2ccccc12)NC(=O)[C@@H](N)CCCNC(=N)N)NC(=O)[C@H](CCCCNC(=O)[C@H](Cc1c[nH]c2ccccc12)NC(=O)[C@@H](N)CCCNC(=N)N)NC(=O)[C@H](Cc1c[nH]c2ccccc12)NC(=O)[C@@H](N)CCCNC(=N)N` [(RW)4D-Nonylamine] (H-RWK([Trp-Arg])K(Lys(α,ε-(ArgTrp)2))[βAla]-X1), which “MIC50 E. faecalis” value is on record?
A: 5.7 µg/mL (≈ 2.9 µM)
